Patent US9969698B2, “Quinoxalinyl-piperazinamide methods of use” (REXAHN PHARMACEUTICALS, INC., priority 2015, dated 2018)
Marks after values point to notes of the source that are not given here.

How the values were obtained:
MDA-MB-231 cells = assay: Cytotoxicity of RX-5902 after p68 knock-down with p68-siRNA; format: cell-based, human; settings: IC50 concentration of RX-5902
[1] = system: human non-small cell lung tumor xenografts (A549); assay: Non-small cell lung cancer xenograft model; format: in vivo, mice; settings: oral
Text: (§1) The efficacy of RX-5902 in human cancer xenograft mouse models is examined. Female nude mice (nu/nu, Harlan or CRL: NU(NCr)-Foxn1^nu, Charles River), 9-10 weeks old, with a body weight (BW) range of 15-30 g on day 1 of the study, are fed ad libitum water (reverse osmosis, 1 ppm C1), and NIH 31 Modified and Irradiated Lab Diet® consisting of 18.0% crude protein, 5.0% crude fat, and 5.0% crude fiber. The mice are housed on irradiated Enrich-o'Cobs™ Laboratory Animal Bedding in static microisolators on a 12-hour light cycle at 20-22° C. (68-72° F.) and 40-60% humidity. The study complies with the recommendations of the Guide for, Care and Use of Laboratory Animals with respect to restraint, husbandry, surgical procedures, feed and fluid regulation, and veterinary care.
Various human tumor cell lines (e.g., HCT116, HT29, H460, H69, Caki-1, CaSki, MiaPaca2, BxPC3 and Colo 205 cells [ATCC, Manassas, Va., USA]) are cultured according to ATCC's instruction. […]
(§2) The cells are harvested during exponential growth and re-suspended with phosphate buffered saline. Each test animal receives a subcutaneous (s.c.) injection of 5×10^6 tumor cells into the right flank and tumor growth is monitored as the average tumor size approaches the target range of 80-300 mm^3. […] Tumors and body weights are measured regularly until the study is terminated.
(§3) Tumors are measured in two dimensions using calipers, and volume is calculated using the formula: […]
Treatment efficacy is determined using data from Day 15. The MTV (n), the median tumor volume for the number of animals, n, on Day 15, is determined for each group. Percent tumor growth inhibition (% TGI) is defined as the difference between the MTV of the designated control group (vehicle administration) and the MTV of the drug-treated group, expressed as a percentage of the MTV of the control group: % TGI=[1−(MTVdrug treated/MTVcontrol)]×100 The data set for TGI analysis includes all animals in a group, except those that die due to treatment-related (TR) or non-treatment-related (NTR) causes. […]
Animals are monitored individually for tumor growth until Day 71. […]

[2] = system: human pancreas tumor xenografts (MiaPaca-2); assay: Pancreatic cancer xenograft model; format: in vivo, mice; settings: oral, 5ON/2OFF
Text: as §1, with “The study complies with the recommendations of the Guide for, Care and Use of Laboratory Animals with respect to restraint, husbandry, surgical procedures, feed and fluid regulation, and veterinary care.” left out
as §2, §3
(§4) Treatment efficacy is determined using data from Day 15. The MTV (n), the median tumor volume for the number of animals, n, on Day 15, is determined for each group. […]
(§5) Animals are monitored individually for tumor growth until Day 71. […] The time to endpoint (TTE) for each mouse is calculated with the following equation: […]

[3] = system: ovarian tumor xenograft (SK-OV3); assay: Ovarian tumor xenograft model; format: in vivo, mice; settings: oral, 5ON/2OFF
Text: as §1, with “The study complies with the recommendations of the Guide for, Care and Use of Laboratory Animals with respect to restraint, husbandry, surgical procedures, feed and fluid regulation, and veterinary care.” left out
as §2, §3, §4, §5

p68 RNA helicase = molecular target: T1, p68 RNA helicase (Homo sapiens, UniProt P17844); assay: RNA-dependent ATPase assay; format: biochemical; settings: total RNA extracted from yeast
T1 construct: made in house
Procedure: ATPase activity was determined by measuring the released inorganic phosphate during ATP hydrolysis using a direct colorimetric assay (Shin et al., Cancer Res., 67:7572-7578 (2007); Yang et. al., Cell, 127:139-155 (2006)). A typical ATPase assay was carried out in 50 μl reaction volumes, containing 20 mM Tris-HCl pH 7.5, 200 mM NaCl, 1 mM MgCl2, 5 mM DTT, ˜1-2 of appropriate substrate, 4 mM ATP, and 10 μl of helicase. The ATPase reactions were incubated at 37° C. for 30 minutes. After incubation, 1 ml of malachitegreen-molybdenum reagent was added to the reaction mixture, and reactions were further incubated at room temperature for exactly 5 minutes. The absorption (A) at 630 nm was then measured. The concentrations of inorganic phosphate were determined by matching the A630nm in a standard curve of A630nm vs. known phosphate concentrations. […] The percentage of inhibition by defining the ATPase activity of phospho-p68 without RX-5902 as zero percent inhibition was calculated and IC50 of RX-5902 was calculated by non-linear regression analysis using Kaledia Graph software program (Synergy Software, Reading, Pa.).
The effect of RX-5902 on ATPase activity of p68 was investigated. To do this, ATPase activity of recombinant p68 in the presence of RX-5902 and total RNA extracted from yeast were measured.

phospho-p68 = molecular target: T2, phospho-p68 (Homo sapiens, UniProt P17844); assay: β-catenin dependent ATPase assay; format: biochemical
T2 construct: made in house
Procedure: ATPase activity was determined by measuring the released inorganic phosphate during ATP hydrolysis using a direct colorimetric assay (Shin et al., Cancer Res., 67:7572-7578 (2007); Yang et. al., Cell, 127:139-155 (2006)). A typical ATPase assay was carried out in 50 μl reaction volumes, containing 20 mM Tris-HCl pH 7.5, 200 mM NaCl, 1 mM MgCl2, 5 mM DTT, ˜1-2 of appropriate substrate, 4 mM ATP, and 10 μl of helicase. The ATPase reactions were incubated at 37° C. for 30 minutes. After incubation, 1 ml of malachitegreen-molybdenum reagent was added to the reaction mixture, and reactions were further incubated at room temperature for exactly 5 minutes. The absorption (A) at 630 nm was then measured. The concentrations of inorganic phosphate were determined by matching the A630nm in a standard curve of A630nm vs. known phosphate concentrations. The proteins, p68 or phospho-p68, used for this assay were prepared in-house similar to the procedure reported previously (Yang et al., Protein Expr. Purif., 35:327-333 (2004)). The percentage of inhibition by defining the ATPase activity of phospho-p68 without RX-5902 as zero percent inhibition was calculated and IC50 of RX-5902 was calculated by non-linear regression analysis using Kaledia Graph software program (Synergy Software, Reading, Pa.).
The experiment was repeated at lower concentrations of RX-5902 to calculate IC50.

T1 sequence (P17844 whole entry): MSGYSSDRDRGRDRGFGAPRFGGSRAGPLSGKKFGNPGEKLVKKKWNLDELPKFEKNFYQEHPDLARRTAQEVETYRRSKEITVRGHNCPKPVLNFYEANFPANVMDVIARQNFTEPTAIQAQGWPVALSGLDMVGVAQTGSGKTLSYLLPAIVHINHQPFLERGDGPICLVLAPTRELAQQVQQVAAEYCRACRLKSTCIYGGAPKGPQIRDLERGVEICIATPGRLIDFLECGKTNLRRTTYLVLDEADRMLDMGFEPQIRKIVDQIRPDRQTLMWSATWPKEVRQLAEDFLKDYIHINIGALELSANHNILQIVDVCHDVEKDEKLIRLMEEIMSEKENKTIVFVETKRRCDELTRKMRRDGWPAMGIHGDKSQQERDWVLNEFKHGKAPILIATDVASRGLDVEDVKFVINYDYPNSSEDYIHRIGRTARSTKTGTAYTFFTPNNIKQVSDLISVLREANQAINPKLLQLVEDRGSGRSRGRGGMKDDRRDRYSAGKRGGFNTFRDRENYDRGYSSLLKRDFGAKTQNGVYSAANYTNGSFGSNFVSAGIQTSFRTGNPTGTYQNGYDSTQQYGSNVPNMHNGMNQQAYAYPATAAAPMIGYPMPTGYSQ
T2 sequence (P17844 whole entry): as above

Question: For `COc1cc(OC)cc(N2CCN(C(=O)Nc3nc4cc(F)ccc4nc3OC)CC2)c1` [RX-5902, 4-(3,5-dimethoxyphenyl)-N-(7-fluoro-3-methoxyquinoxalin-2-yl)piperazine-1-carboxamide], which “cytotoxic effect in p68-siRNA-transfected cells” value (MDA-MB-231 cells) is on record?
Answer: protected MDA-MB-231 cells from the cytotoxic effects

Question: What about the TGI % ([1]; 160 mg/kg QWK) of the same compound?
Answer: 30%*

Question: What about the TGI % ([1]; 320 mg/kg QWK) of the same compound?
Answer: 26%*

Question: What about the TGI % ([1]; 600 mg/kg QWK) of the same compound?
Answer: 26%*

Question: And the TGD % ([2]; 50 mg/kg)?
Answer: 83%^

Question: And the TGD % ([2]; 70 mg/kg)?
Answer: 339%^

Question: What about the TGD % ([3]; 40 mg/kg) of the same compound?
Answer: 6%^

Question: And the TGD % ([3]; 70 mg/kg)?
Answer: 49%^

Question: What about the “effect on RNA-dependent ATPase activity” value (p68 RNA helicase; 0.2 μM) of the same compound?
Answer: did not affect

Question: And the “inhibition of RNA-dependent ATPase activity” value (p68 RNA helicase; 20 μM)?
Answer: less than 30%

Question: What about the “β-catenin dependent ATPase activity” value (phospho-p68; 0.2 μM) of the same compound?
Answer: largely diminished

Question: And the IC50 (phospho-p68; read-out: IC50 for the inhibition of β-catenin dependent ATPase activity)?
Answer: 61 nM
